From the OligoGym collection
“And” between values parts separate entries of the source, which are not always exact repeats. Equal values may be shown once. After the bases stand the sugars from the 5' end (letter, count) and the backbone: PS all phosphorothioate, else s phosphorothioate and o phosphodiester by linkage. HELM strings list units from the 5' end as sugar, base in round brackets, then linkage (d deoxyribose, r ribose, m 2'-O-methyl, p phosphodiester). Methylation of C is not given here. [moe] = 2'-O-(2-methoxyethyl) (MOE); [cEt] = constrained ethyl (cEt); [sp] = phosphorothioate linkage; e = 2'-O-(2-methoxyethyl) (MOE); k = constrained ethyl (cEt); d = 2'-deoxy (DNA)

What was measured:
KRAS = details: ASO
HBV = details: ASO

Substance	target mRNA inhibition (KRAS; A431, 2 µM) [%]	target mRNA inhibition (HBV; HepG2, 0.07 µM)	other results
GTGAAACTCTCTATGA (sugars k3 d10 k3, PS)	28	–	–
GTCCAGTGATACTTTC (sugars kkddddddddddkeke, PS)	39	–	–
CACTTGTACTAGTATG (sugars k3 d10 k3, PS)	36	–	–
TCCAGTGATACTTTCA (sugars kkdddddddddkdkdk, PS)	35	–	–
CATTACTTTTTGACAA (sugars k3 d10 k3, PS)	8	–	–
GACTTGAAAAGTGTTT (sugars k3 d10 k3, PS)	14	–	–
TGCTGTGAAACTCTCT (sugars k3 d9 k3 e1, PS)	23	–	–
GGAGTCTTTATAGTAA (sugars k3 d9 k3 e1, PS)	41	–	–
CTAAAACAAATGCTAA (sugars k3 d10 k3, PS)	15	–	–
TGTTTATGCAATGTTA (sugars kkkddddddddkekek, PS)	52	–	–
AGATTGTGCTGAGCTT (sugars kkkddddddddkekek, PS)	26	–	–
CAGTGTGACTCAGTTA (sugars kkkddddddddkekek, PS)	63	–	target mRNA inhibition (KRAS; A431, 0.185 µM): 28%; target mRNA inhibition (KRAS; A431, 0.556 µM): 24%; target mRNA inhibition (KRAS; A431, 1.667 µM): 46%; target mRNA inhibition (KRAS; A431, 5 µM): 71%
ATTAGTCTCCATTAGT (sugars k3 d10 k3, PS)	29	–	–
CCATTCAAAGTTCACA (sugars kkdddddddddkekek, PS)	36	–	–
ATGGTGTAACATAGGT (sugars kkddddddddkekekk, PS)	40	–	–
CTGTCTATTCATACCA (sugars k3 d10 k3, PS)	34	–	–
TTAGTGATTAGGTCAA (sugars kkdddddddddkekek, PS)	48	–	–
AGGCAAGATGACACTA (sugars k3 d10 k3, PS)	21	–	–
TTCAAAGTTCACATAA (sugars k3 d10 k3, PS)	7	–	–
AGATTGTGCTGAGCTT (sugars kkddddddddkekekk, PS)	0	–	–
AGTGTGACTCAGTTAA (sugars kkdddddddddkekek, PS)	48	–	–
GCATGTAAATATAGCC (sugars k3 d10 k3, PS)	11	–	–
CAGATTGTGCTGAGCT (sugars k3 d10 k3, PS)	29	–	–
ATTCAAAGTTCACATA (sugars k3 d10 k3, PS)	0	–	–
ACCAGTGTTAAGAGAA (sugars kdddddddddkekeke, PS)	50	–	–
AAAGTGTTTATGCAAT (sugars k3 d10 k3, PS)	29	–	–

Substance	target mRNA inhibition (KRAS; A431, 2 µM) [%]	target mRNA inhibition (HBV; HepG2, 0.07 µM)	other results
GCTGTGAAACTCTCTA (sugars kdddddddddkekeke, PS)	2	–	–
CTTCATTGTTTAAAAA (sugars k3 d10 k3, PS)	11	–	–
TGTAGTTTCACATAGC (sugars k3 d10 k3, PS)	59	–	target mRNA inhibition (KRAS; A431, 0.185 µM): 28% and 3%; target mRNA inhibition (KRAS; A431, 0.556 µM): 45% and 34%; target mRNA inhibition (KRAS; A431, 5 µM): 75% and 69%
AGGAGTCTTTATAGTA (sugars kkkdddddddddkeke, PS)	31	–	–
AGATTGTGCTGAGCTT (sugars kkkdddddddddkeke, PS)	43	–	–
TGGTGTAACATAGGTT (sugars kkddddddddddkeke, PS)	67	–	target mRNA inhibition (KRAS; A431, 0.185 µM): 28%; target mRNA inhibition (KRAS; A431, 0.556 µM): 62%; target mRNA inhibition (KRAS; A431, 1.667 µM): 74%; target mRNA inhibition (KRAS; A431, 5 µM): 87%; target mRNA inhibition (KRAS; NCI-H460, 0.037 µM): 64.3%
TAATAGTTTCCATTGC (sugars k3 d10 k3, PS)	53	–	–
RNA1{[moe](T)[sp].[moe](T)[sp].[moe](A)[sp].d(T)[sp].d(G)[sp].d(C)[sp].d(C)[sp].d(T)[sp].d(A)[sp].d(C)[sp].d(A)[sp].d(G)[sp].[moe](C)[sp].[moe](C)[sp].[moe](T)[sp].[moe](C)[sp].[moe](C)}$$$$V2.0	–	61% and 54%	–
RNA1{[moe](A)[sp].[moe](A)[sp].[moe](T)[sp].[moe](T)[sp].[moe](T)[sp].d(A)[sp].d(T)[sp].d(G)[sp].d(C)[sp].d(C)[sp].d(T)[sp].d(A)[sp].d(C)[sp].d(A)[sp].[moe](G)[sp].[moe](C)}$$$$V2.0	–	39% and 23%	–
RNA1{[moe](A)[sp].[moe](A)[sp].[moe](C)[sp].d(C)[sp].d(A)[sp].d(C)[sp].d(T)[sp].d(G)[sp].d(A)[sp].d(A)[sp].d(C)[sp].d(A)[sp].[moe](A)[sp].[moe](A)[sp].[moe](T)[sp].[moe](G)}$$$$V2.0	–	20% and 37%	–
RNA1{[moe](G)[sp].[moe](C)[sp].[moe](A)[sp].[moe](T)[sp].d(A)[sp].d(G)[sp].d(C)[sp].d(A)[sp].d(G)[sp].d(C)[sp].d(A)[sp].d(G)[sp].d(G)[sp].[moe](A)[sp].[moe](T)[sp].[moe](G)}$$$$V2.0	–	44% and 56%	–
RNA1{[moe](A)[sp].[moe](C)[sp].[moe](G)[sp].[moe](G)[sp].d(G)[sp].d(C)[sp].d(A)[sp].d(A)[sp].d(C)[sp].d(A)[sp].d(T)[sp].d(A)[sp].d(C)[sp].[moe](C)[sp].[moe](T)[sp].[moe](T)}$$$$V2.0	–	50% and 54%	–
RNA1{[moe](A)[sp].[cEt](C)[sp].[cEt](T)[sp].d(G)[sp].d(G)[sp].d(A)[sp].d(G)[sp].d(C)[sp].d(C)[sp].d(A)[sp].d(C)[sp].d(C)[sp].d(A)[sp].[cEt](G)[sp].[cEt](C)[sp].[moe](A)}$$$$V2.0	–	67% and 75%	–
RNA1{[cEt](A)[sp].d(G)[sp].[cEt](G)[sp].d(T)[sp].[cEt](G)[sp].d(A)[sp].d(A)[sp].d(G)[sp].d(C)[sp].d(G)[sp].d(A)[sp].d(A)[sp].d(G)[sp].d(T)[sp].[moe](G)[sp].[moe](C)}$$$$V2.0	–	–	target mRNA inhibition (HBV; HepG2, 0.009375 µM): 14%; target mRNA inhibition (HBV; HepG2, 0.01875 µM): 21%; target mRNA inhibition (HBV; HepG2, 0.0375 µM): 42%; target mRNA inhibition (HBV; HepG2, 0.075 µM): 61%; target mRNA inhibition (HBV; HepG2, 0.15 µM): 80%; target mRNA inhibition (HBV; HepG2, 0.3 µM): 92%
RNA1{[moe](A)[sp].[moe](G)[sp].[moe](A)[sp].d(A)[sp].d(G)[sp].d(T)[sp].d(C)[sp].d(C)[sp].d(A)[sp].d(C)[sp].d(C)[sp].d(A)[sp].d(C)[sp].[cEt](G)[sp].[cEt](A)[sp].[cEt](G)}$$$$V2.0	–	42% and 55%	–
RNA1{[moe](G)[sp].[cEt](C)[sp].[cEt](A)[sp].d(C)[sp].d(A)[sp].d(G)[sp].d(C)[sp].d(T)[sp].d(T)[sp].d(G)[sp].d(G)[sp].d(A)[sp].d(G)[sp].[cEt](G)[sp].[cEt](C)[sp].[moe](T)}$$$$V2.0	–	27% and 12%	–
RNA1{[moe](G)[sp].[moe](A)[sp].d(T)[sp].d(G)[sp].d(A)[sp].d(G)[sp].d(G)[sp].d(C)[sp].d(A)[sp].d(T)[sp].d(A)[sp].[moe](G)[sp].[moe](C)[sp].[moe](A)[sp].[moe](G)[sp].[moe](C)[sp].[moe](A)}$$$$V2.0	–	72% and 65%	–
RNA1{[moe](T)[sp].[cEt](G)[sp].[cEt](G)[sp].d(A)[sp].d(G)[sp].d(C)[sp].d(C)[sp].d(A)[sp].d(C)[sp].d(C)[sp].d(A)[sp].d(G)[sp].d(C)[sp].[cEt](A)[sp].[cEt](G)[sp].[moe](G)}$$$$V2.0	–	57% and 53%	–
RNA1{[moe](G)[sp].[moe](A)[sp].[moe](A)[sp].d(G)[sp].d(T)[sp].d(C)[sp].d(C)[sp].d(A)[sp].d(C)[sp].d(C)[sp].d(A)[sp].d(C)[sp].d(G)[sp].[cEt](A)[sp].[cEt](G)[sp].[cEt](T)}$$$$V2.0	–	34% and 33%	–
RNA1{[moe](G)[sp].[moe](A)[sp].[moe](A)[sp].[moe](C)[sp].[moe](C)[sp].d(A)[sp].d(C)[sp].d(T)[sp].d(G)[sp].d(A)[sp].d(A)[sp].d(C)[sp].d(A)[sp].d(A)[sp].[moe](A)[sp].[moe](T)[sp].[moe](G)}$$$$V2.0	–	48% and 27%	–
RNA1{[moe](C)[sp].[moe](A)[sp].[moe](A)[sp].d(T)[sp].d(T)[sp].d(T)[sp].d(A)[sp].d(T)[sp].d(G)[sp].d(C)[sp].d(C)[sp].d(T)[sp].[moe](A)[sp].[moe](C)[sp].[moe](A)[sp].[moe](G)[sp].[moe](C)}$$$$V2.0	–	33% and 41%	–
RNA1{[moe](A)[sp].[moe](C)[sp].[moe](G)[sp].d(T)[sp].d(G)[sp].d(C)[sp].d(A)[sp].d(G)[sp].d(A)[sp].d(G)[sp].d(G)[sp].d(T)[sp].d(G)[sp].[cEt](A)[sp].[cEt](A)[sp].[cEt](G)}$$$$V2.0	–	74% and 78%	–
RNA1{[moe](T)[sp].[moe](T)[sp].[moe](C)[sp].[moe](C)[sp].[moe](G)[sp].d(C)[sp].d(A)[sp].d(G)[sp].d(T)[sp].d(A)[sp].d(T)[sp].d(G)[sp].d(G)[sp].d(A)[sp].[moe](T)[sp].[moe](C)[sp].[moe](G)}$$$$V2.0	–	65% and 59%	–
RNA1{[moe](A)[sp].[moe](G)[sp].[moe](C)[sp].d(G)[sp].d(A)[sp].d(A)[sp].d(G)[sp].d(T)[sp].d(G)[sp].d(C)[sp].d(A)[sp].d(C)[sp].d(A)[sp].[cEt](C)[sp].[cEt](G)[sp].[cEt](G)}$$$$V2.0	–	82% and 86%	target mRNA inhibition (HBV; HepG2, 0.0092593 µM): 17%; target mRNA inhibition (HBV; HepG2, 0.0277778 µM): 49%; target mRNA inhibition (HBV; HepG2, 0.0833333 µM): 79%; target mRNA inhibition (HBV; HepG2, 0.25 µM): 90%
RNA1{[moe](A)[sp].[moe](C)[sp].[moe](G)[sp].[moe](G)[sp].[moe](G)[sp].[moe](C)[sp].d(A)[sp].d(A)[sp].d(C)[sp].d(A)[sp].d(T)[sp].d(A)[sp].d(C)[sp].d(C)[sp].d(T)[sp].[moe](T)[sp].[moe](G)}$$$$V2.0	–	0%	–
RNA1{[moe](A)[sp].[moe](C)[sp].[moe](G)[sp].[moe](G)[sp].[moe](G)[sp].d(C)[sp].d(A)[sp].d(A)[sp].d(C)[sp].d(A)[sp].d(T)[sp].d(A)[sp].d(C)[sp].d(C)[sp].[moe](T)[sp].[moe](T)[sp].[moe](G)}$$$$V2.0	–	48% and 45%	–
